Biological target: T1, α2wt (Homo sapiens, UniProt P23416)
T1 sequence (P23416 28-452): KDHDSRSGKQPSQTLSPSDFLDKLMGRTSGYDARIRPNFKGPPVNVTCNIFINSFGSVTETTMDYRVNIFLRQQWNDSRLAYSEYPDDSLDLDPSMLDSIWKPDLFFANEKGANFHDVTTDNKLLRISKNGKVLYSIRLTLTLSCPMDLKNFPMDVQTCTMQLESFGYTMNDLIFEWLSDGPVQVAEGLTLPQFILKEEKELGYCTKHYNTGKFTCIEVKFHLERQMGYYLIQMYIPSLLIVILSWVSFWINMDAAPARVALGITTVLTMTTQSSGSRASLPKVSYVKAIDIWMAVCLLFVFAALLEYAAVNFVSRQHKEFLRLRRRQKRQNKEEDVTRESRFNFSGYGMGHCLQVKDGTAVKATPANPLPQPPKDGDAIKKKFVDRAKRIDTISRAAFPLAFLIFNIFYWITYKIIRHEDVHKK
Experiment: whole-cell patch clamp
Format: cell-based
Details: agonist; pH 7.4; -80 mV

## NCC(=O)O [glycine]
  EC50: Dose response of glycine from (A)

Reference: article doi:10.1101/2021.05.17.444520v1 (biorxiv, 2021)
